Laboratory results reported in article PMC9503608, “An Insight into Symmetrical Cyanine Dyes as Promising Selective Antiproliferative Agents in Caco-2 Colorectal Cancer Cells” (Molecules, 2022).
Where two headings read alike, the source gives them in different places.

Key:
[1] = MTT cell viability assay, NHDF; assay type: cell-based, human; conditions: human, normal human dermal fibroblasts (NHDF), single concentration of 10 µM, 72 h, mean ± SD; read-out: cell viability percentage in relation with control, NHDF
Description: (§1) Caco-2, MCF-7, PC-3, and NHDF cell lines were obtained from the American Type Culture Collection (ATCC) and maintained in 75 cm^2 culture flasks in a humidified atmosphere at 37 °C with 5% carbon dioxide using a LEEC Culture Safe Precision CO2 Incubator. The culture media was renewed every two to three days. The NHDF cell line was cultured in Roswell Park Memorial Institute (RPMI) medium supplemented with 10% of inactivated fetal bovine serum (FBS), 2 mM of L-glutamine, 10 mM of 4-(2-hydroxyethyl)-1-piperazineethanesulfonic acid (HEPES), 1 mM of sodium pyruvate, and 1% of antibiotic/antimycotic mixture (Ab; 10,000 U/mL of penicillin G, […] of streptomycin, and 25 µg/mL of amphotericin B). The PC-3 cell line was also cultured in RPMI 1640 medium supplemented with 10% inactivated FBS and 1% of an antibiotic mixture (Sp; 10,000 U/mL of penicillin G and […] of streptomycin). The Caco-2 and MCF-7 cell lines were grown in Dulbecco’s Modified Eagle Medium (DMEM). Caco-2 was supplemented with 20% of inactivated FBS and 1% of Sp. On the other hand, the MCF-7 medium was complemented with 10% of inactivated FBS and 1% of Ab. All manipulations were performed in a Labculture Class II A2 Biological Safety Cabinet.
(§2) After the near confluency of cultures, cells were detached with a solution of 0.125 g/L trypsin and 0.02 g/L ethylenediaminetetracetic acid (EDTA), counted using the trypan blue method, resuspended, and seeded in 96-well culture plates (100 µL, 2 × 10^4 cells/mL). Following 48 h of adherence, cells were treated with the test solutions and incubated for 72 h. This incubation, as well as the solution manipulations, were performed in an environment protected from light. After the incubation, the medium was replaced with a fresh incomplete culture medium (without FBS and Ab or Sp) and MTT solution (5 mg/mL in phosphate buffer saline (PBS)). After additional incubation for 4 h, the MTT medium was removed, formazan crystals were dissolved in DMSO, and the optical density of each well was measured at 570 nm using a microplate spectrophotometer Bio-Rad xMark. Untreated cells were used as a negative control and 5-FU as the positive control. The results were expressed as the relative cell proliferation relative to the negative control cells. […] To determine the IC50 values, Caco-2, MCF-7, PC-3, and NHDF cells were exposed to increasing concentrations between 0.001 and 100 μM.

[2] = test system: normal human dermal fibroblasts (NHDF); test: MTT cell viability assay, NHDF; assay type: cell-based; conditions: Homo sapiens, NHDF, 72 h of incubation, MTT, protected from light
Description: as §1, §2

[3] = MTT cell viability assay, Caco-2; assay type: cell-based, human; conditions: human, 72 h, read-out: SI Caco-2 (selectivity index, cancer versus NHDF)
Description: as §1, §2

[4] = test system: Caco-2 colorectal adenocarcinoma cell line; test: MTT cell viability assay, Caco-2; assay type: cell-based, human; conditions: Homo sapiens; for IC50: 72 h of incubation, MTT, protected from light; for viability at 10 µM: single concentration of 10 µM, 72 h, mean ± SD, read-out: cell viability percentage in relation with control, Caco-2
Description: as §1, §2

[5] = test system: MCF-7 breast adenocarcinoma cell line; test: MTT cell viability assay, MCF-7; assay type: cell-based, human; conditions: Homo sapiens; for viability at 10 µM: single concentration of 10 µM, 72 h, mean ± SD, read-out: cell viability percentage in relation with control, MCF-7
Description: as §1, §2

[6] = test system: PC-3 prostate adenocarcinoma cell line; test: MTT cell viability assay, PC-3; assay type: cell-based, human; conditions: for viability at 10 µM: single concentration of 10 µM, mean ± SD, read-out: cell viability percentage in relation with control, PC-3
Description: as §1, §2

Caco-2 cells [7] = test: Apoptosis by propidium iodide staining and flow cytometry; assay type: cell-based, human
Description: (§3) The apoptosis occurrence and influence of the dye 12 on the cell cycle were evaluated using propidium iodide (PI) staining and flow cytometry, as described by Riccardi and Nicolleti. After the near confluency of the culture, trypsinisation, and counting, Caco-2 cells were seeded (2 mL, 3 × 10^4 cells/mL) in 6-well plates. After 48 h of adherence, the cells were treated with the test solutions (3 mL and 5 mL for negative control) and incubated for 72 h. Untreated cells were used as the negative control, and sorbitol and 5-FU [56] were used as positive controls for the apoptosis and cell cycle distribution studies, respectively. After incubation, the supernatant was collected and the cells were washed with PBS and combined with the cells harvested using the trypsin treatment. This cell suspension was maintained on ice and centrifugated, and then the pellet was resuspended in 0.5 mL of PBS. The cells were fixed by adding 4.5 mL of 70% ethanol cooled at −20 °C and were stored at the same temperature. For the cytometry analysis, PBS was added to the fixed cells before centrifugation, and then the ethanolic supernatant was removed. The pellet was resuspended in 0.5 mL of PBS and 0.5 mL of DNA extraction (192 mL of 0.2 M sodium phosphate and 8 mL of […], pH 7.8) was added. After incubation for 5 min, the cells were centrifuged, the supernatant was removed, and the pellet resuspended in 0.3 mL of staining solution (20 µg/mL of PI and 0.2 mg/mL of DNase-free RNase in PBS). Using a FACSCalibur flow cytometer and the 488 nm laser line, a minimum of 20,000 events were recorded. Acquisition and apoptosis analysis was performed using BD CellQuestTM Pro 4.0.2 Software. Cell cycle analysis was performed with ModFit LT 5.0.9 software. To exclude debris and necrotic cells, events with a lower diameter (forward scatter; FCS) and reduced PI fluorescence (FL3) than the hypodiploid apoptotic cells were eliminated. Two independent experiments were performed.

Caco-2 cells [8] = test: Cell cycle distribution by propidium iodide staining and flow cytometry; assay type: cell-based, human; conditions: dye 12 and 5-FU 10 µM 72 h, sorbitol 600 mM 24 h, versus untreated cells
Description: as §3

Caco-2 cells [9] = test: Morphological analysis by inverted microscopy; assay type: cell-based, human; conditions: 10 µM, 72 h, 20 or 40× magnification, versus untreated cells
Description: After the near confluency of the culture, trypsinisation, and counting, Caco-2 cells were seeded (3 mL; 3 × 10^4 cells/mL) in 35 mm cell culture dishes with treatment for the tissue culture. Following 48 h of adherence, the cells were treated with the test solutions and incubated for 72 h in an environment protected from light. At every 24 h, cellular morphology was verified in an Olympus CKX41 SF inverted microscope with a 10, 20, or 40× objective, and the analysis was based on comparing the cells with and without treatment. Cell imaging was captured using a DC6V Olympus digital camera coupled to the microscope.

Row | SMILES | viability at 72 h, 10 µM [1] | IC50 ([2]; 72 h) | selectivity ratio at 72 h ([3]; Caco-2, Caco-2 versus NHDF) | IC50 ([4]; Caco-2, 72 h) | viability at 10 µM ([4]; Caco-2, 72 h) | viability at 10 µM ([5]; MCF7, 72 h) | viability at 10 µM ([6]; Homo sapiens, 72 h, 72 h) | effect on cell cycle distribution (Caco-2 cells [8]) | melting point | further results
1 | O=c1[nH]cc(F)c(=O)[nH]1 [Dye 5-FU, 5-fluorouracil, reference compound] | 12.7 ± 3.99% | 6170 nM | 3.6 | 1700 nM | 25.7 ± 1.02% | 16 ± 1.8% | 11.9 ± 2.1% | significant increase in the rate of Caco-2 cells in the S-phase |  | IC50 ([5]; MCF7, 72 h of incubation, MTT, protected from light): 1240 nM; IC50 ([6]; Homo sapiens, 72 h of incubation, MTT, protected from light): 1720 nM; SI PC-3 (selectivity index, cancer versus NHDF) ([6]; PC-3 versus NHDF, 72 h): 3.6; increase in apoptotic cells relative to untreated cells (Caco-2 cells [7]; Caco-2, 10 µM, 72 h): approximately 10%; morphological changes of Caco-2 cells (Caco-2 cells [9]): cell size increase with an enlarged and well-defined nucleus
2 | CN1C(=Cc2ccc3ccccc3[n+]2C)C=Cc2ccccc21.[I-] [Dye 13, 1-Methyl-2-((1-methylquinolin-2(1H)-ylidene)methyl)quinolin-1-ium iodide] | 8.37 ± 2.26% | 590 nM | 1 | 580 nM | 7.81 ± 0.51% | 11.8 ± 1.89% | 7.42 ± 1.27% |  | 240 to 241 °C | 
3 | CCCN1C=CC(=Cc2cc[n+](CCC)c3ccccc23)c2ccccc21.[I-] [Dye 14, 1-Propyl-4-((1-propylquinolin-4(1H)-ylidene)methyl)quinolin-1-ium iodide] | 1.99 ± 0.25% | 990 nM | 1.5 | 680 nM | 9.84 ± 0.93% | 22.9 ± 0.68% | 8.03 ± 2.15% |  | 229 to 231 °C | 
4 | CCN1C(=CC=Cc2[se]c3ccccc3[n+]2CC)[Se]c2ccccc21.[I-] [Dye 16, 3-Ethyl-2-(3-(3-ethylbenzo[d][1,3]selenazol-2(3H)-ylidene)prop-1-en-1-yl)benzo[d][1,3]selenazol-3-ium iodide] | 4.53 ± 0.39% |  |  |  |  |  |  |  | 272 to 273 °C (dec.) | IC50 [2]: 480 nM; selectivity ratio at 72 h ([3]; Caco-2 versus NHDF): 6.5; IC50 ([4]; Caco-2): 70 nM; viability at 10 µM ([4]; Caco-2): 1.25 ± 0.39%; viability at 10 µM ([5]; MCF7): 1.39 ± 0.68%; viability at 10 µM ([6]; Homo sapiens, 72 h): 3.92 ± 0.75%
5 | CCCCCN1C(=CC=C2CCCC(C=Cc3sc4ccccc4[n+]3CCCCC)=C2Cl)Sc2ccccc21.[I-] [Dye 17, 2-(2-(2-Chloro-3-(2-(3-pentylbenzo[d]thiazol-2(3H)-ylidene)ethylidene)cyclohex-1-en-1-yl)vinyl)-3-pentylbenzo[d]thiazol-3-ium iodide] | 2.26 ± 0.1% | 910 nM | 0.4 | 2060 nM | 0.24 ± 0.17% | 11.2 ± 3.11% | 0.43 ± 0.26% |  | 227 to 228 °C | 
6 | OC[C@@H](O)[C@@H](O)[C@H](O)[C@@H](O)CO [sorbitol, reference compound] |  |  |  |  |  |  |  | did not significantly affect the Caco-2 cell cycle |  | apoptosis induced (percent of cells) (Caco-2 cells [7]; Caco-2, dye 12 10 µM 72 h, sorbitol 600 mM 24 h): about 28%
